Measurements from US4229584A, “Ureylenebis(anionic substituted phenylene carbonyl)imino naphthalene sulfonic acids and naphthalene carboxylic acids and their salts” (American Cyanamid Company, priority 1978, dated 1980).
Counter-ions that a name gives are not always drawn. Like-named read-outs stand apart in the source and are kept apart here.

Legend:
human C1 = target: T1, human C1 (Homo sapiens, UniProt P09871); test: Test, Code 026 (C1 inhibitor): protection of fluid phase human C2 from activated human C1; type: biochemical; settings: activity in wells, twofold serial dilution; higher well number indicates higher activity
T1 construct: substrate fluid phase human C2, in presence of C4
T1 sequence (P09871 16-688): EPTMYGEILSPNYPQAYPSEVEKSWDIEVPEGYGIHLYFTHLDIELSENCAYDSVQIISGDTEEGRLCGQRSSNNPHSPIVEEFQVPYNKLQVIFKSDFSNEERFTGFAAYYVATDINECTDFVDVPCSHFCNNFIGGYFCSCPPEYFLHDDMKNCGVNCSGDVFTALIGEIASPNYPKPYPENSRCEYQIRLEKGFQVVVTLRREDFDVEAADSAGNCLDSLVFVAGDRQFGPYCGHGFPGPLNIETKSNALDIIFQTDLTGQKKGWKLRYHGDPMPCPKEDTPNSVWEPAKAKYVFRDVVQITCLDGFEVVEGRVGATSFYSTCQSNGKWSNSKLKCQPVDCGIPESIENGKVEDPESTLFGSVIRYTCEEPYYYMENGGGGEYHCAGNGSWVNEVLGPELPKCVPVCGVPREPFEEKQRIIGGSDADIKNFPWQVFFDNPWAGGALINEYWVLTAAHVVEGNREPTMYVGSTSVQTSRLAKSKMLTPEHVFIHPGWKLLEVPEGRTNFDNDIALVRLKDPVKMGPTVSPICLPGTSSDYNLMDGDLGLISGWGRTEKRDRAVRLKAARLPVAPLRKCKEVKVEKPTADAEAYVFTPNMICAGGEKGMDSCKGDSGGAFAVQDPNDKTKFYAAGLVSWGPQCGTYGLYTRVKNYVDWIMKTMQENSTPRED
T1 sequence (P00736 18-705 partner): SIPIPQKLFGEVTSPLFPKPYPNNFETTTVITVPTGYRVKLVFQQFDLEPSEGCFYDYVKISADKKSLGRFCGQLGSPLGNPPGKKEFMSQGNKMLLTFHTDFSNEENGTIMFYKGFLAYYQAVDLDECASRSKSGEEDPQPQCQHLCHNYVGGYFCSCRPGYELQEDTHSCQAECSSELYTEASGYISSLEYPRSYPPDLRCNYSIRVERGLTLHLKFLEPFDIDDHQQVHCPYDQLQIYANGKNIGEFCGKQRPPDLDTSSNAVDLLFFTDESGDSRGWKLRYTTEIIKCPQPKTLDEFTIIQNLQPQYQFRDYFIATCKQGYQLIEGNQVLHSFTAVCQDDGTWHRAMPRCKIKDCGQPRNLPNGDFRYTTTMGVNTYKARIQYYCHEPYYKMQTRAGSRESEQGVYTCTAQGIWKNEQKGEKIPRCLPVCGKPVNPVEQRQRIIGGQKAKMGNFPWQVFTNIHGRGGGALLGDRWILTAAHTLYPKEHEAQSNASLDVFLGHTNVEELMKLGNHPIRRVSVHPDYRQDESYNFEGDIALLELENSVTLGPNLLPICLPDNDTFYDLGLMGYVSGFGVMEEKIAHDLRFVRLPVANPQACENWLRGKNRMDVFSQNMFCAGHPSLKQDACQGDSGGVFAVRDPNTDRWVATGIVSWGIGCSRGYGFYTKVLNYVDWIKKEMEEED
T1 sequence (P02745 23-245 partner): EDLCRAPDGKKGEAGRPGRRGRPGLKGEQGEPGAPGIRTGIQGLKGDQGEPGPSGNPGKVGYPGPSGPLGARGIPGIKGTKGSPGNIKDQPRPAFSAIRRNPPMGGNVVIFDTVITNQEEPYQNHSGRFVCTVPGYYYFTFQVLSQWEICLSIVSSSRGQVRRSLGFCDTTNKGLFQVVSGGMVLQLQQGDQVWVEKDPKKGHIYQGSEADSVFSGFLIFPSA
T1 sequence (P02746 28-253 partner): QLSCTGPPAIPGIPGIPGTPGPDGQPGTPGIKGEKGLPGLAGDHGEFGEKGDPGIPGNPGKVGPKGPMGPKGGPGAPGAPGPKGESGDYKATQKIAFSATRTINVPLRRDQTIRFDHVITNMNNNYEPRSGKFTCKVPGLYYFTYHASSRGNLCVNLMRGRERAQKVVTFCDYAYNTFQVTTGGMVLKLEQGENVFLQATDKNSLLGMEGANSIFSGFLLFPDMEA
T1 sequence (P02747 29-245 partner): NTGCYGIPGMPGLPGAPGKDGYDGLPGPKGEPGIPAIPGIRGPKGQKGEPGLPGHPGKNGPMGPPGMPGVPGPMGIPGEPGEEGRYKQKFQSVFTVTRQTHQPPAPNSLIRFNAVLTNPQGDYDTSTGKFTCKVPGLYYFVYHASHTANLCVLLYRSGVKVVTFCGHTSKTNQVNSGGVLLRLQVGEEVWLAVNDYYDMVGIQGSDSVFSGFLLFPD
Source text: (§1) An active inhibitor protects C2 from C1 and C4; (ii) Test, Code 035 (C3-C9 inhibitor)--This test determines the ability of the late components of human complement (C3-C9) to lyse EAC 142 in the presence of appropriate dilutions of the test compound. An active inhibitor protects EAC 142 from lysis by human C3-C9; (iii) Test, Code 036 (C-Shunt inhibitor)--In this test human erythrocytes rendered fragile are lysed in autologous serum via the shunt pathway activated by cobra venom factor in the presence of appropriate dilutions of the test compound. Inhibition of the shunt pathway results in failure of lysis; (iv) Forssman Vasculitis Test--Here, the well known complement dependent lesion, Forssman vasculitis, is produced in guinea pigs by intradermal injection of rabbit anti-Forssman antiserum. The lesion is measured in terms of diameter, edema and hemorrhage and the extent to which a combined index of these is inhibited by prior intraperitoneal injection of the test compound at 200 mg/kg is then reported, unless otherwise stated; (v) Forssman Shock Test--Lethal shock is produced in guinea pigs by an i.v. injection of anti-Forssman antiserum and the harmonic mean death time of treated guinea pigs is compared with that of simultaneous controls; (vi) Complement Level Reduction Test--In this test, the above dosed guinea pigs, or others, are bled for serum and the complement level is determined in undiluted serum by the capillary tube method of U.S. Pat. No. 3,876,376 and compared to undosed control guinea pigs; and (vii) Cap 50 Test--Here, appropriate amounts of the test compound are added to a pool of guinea pig serum in vitro, after which the undiluted serum capillary tube assay referred to above is run. The concentration of compound inhibiting 50% is reported.
(§2) **Activity in wells, a serial dilution assay. Higher well number indicate
(§3) higher activity. The serial dilutions are twofold.

whole complement = test: In vivo complement inhibition in guinea pigs (whole complement of serum, capillary tube assay); set-up: species or system guinea pig; settings: for change in vivo at 200 mg/kg: Cavia porcellus, ip
Source text: as §1
With reference to Table I, guinea pigs weighing about 300 g were dosed intravenously (i.v.) or intraperitoneally (i.p.) with 200 mg/kg of the test compound dissolved in saline and adjusted to pH 7-8. […] The serum was tested for whole complement using the capillary tube assay. Percent inhibition was calculated by comparison with simultaneous controls. The results appear in Table I together with results of tests, Code 026, 035, 036, Cap 50, percent inhibition and Forssman shock.

shunt pathway = test: Test, Code 036 (C-Shunt inhibitor): lysis of human erythrocytes in autologous serum via shunt pathway activated by cobra venom factor; type: cell-based; settings: activity in wells, twofold serial dilution; higher well number indicates higher activity
Source text: as §1, §2, §3

[1] = tested on: late components of human complement (C3-C9); test: Test, Code 035 (C3-C9 inhibitor): lysis of EAC 142 by late components of human complement; type: cell-based; settings: activity in wells, twofold serial dilution; higher well number indicates higher activity
Source text: as §1, §2, §3

[2] = 2 h, intraperitoneal, 200 mg/kg, 120 mins., read-out: In Vivo Activity (Guinea Pig) % Inhibition Intraperitoneal 120 mins.
[3] = 0.5 h, read-out: In Vivo Activity (Guinea Pig) % Inhibition Intraperitoneal 30 mins.
[4] = 1 h, read-out: In Vivo Activity (Guinea Pig) % Inhibition Intraperitoneal 60 mins.
[5] = 2 h, read-out: In Vivo Activity (Guinea Pig) % Inhibition Intraperitoneal 120 mins.
[6] = 0.5 h, intraperitoneal, 200 mg/kg, 30 mins., read-out: In Vivo Activity (Guinea Pig) % Inhibition Intraperitoneal 30 mins.
[7] = 1 h, intraperitoneal, 200 mg/kg, 60 mins., read-out: In Vivo Activity (Guinea Pig) % Inhibition Intraperitoneal 60 mins.

| Compound | C1 026* Wells (human C1) | change in vivo at 200 mg/kg (whole complement; [2]) | Shunt Inhibition 036* Wells (shunt pathway) | C-Late 035* Wells [1] | change in vivo at 200 mg/kg (whole complement; [3]) | change in vivo at 200 mg/kg (whole complement; [4]) | change in vivo at 200 mg/kg (whole complement; [5]) | change in vivo at 200 mg/kg (whole complement; [6]) | change in vivo at 200 mg/kg (whole complement; [7]) | In Vivo Activity (Guinea Pig) % Inhibition Intravenous 2 mins. (whole complement; 200 mg/kg) | In Vivo Activity (Guinea Pig) % Inhibition Intravenous 30 mins. (whole complement; 200 mg/kg, 30 mins.) | In Vivo Activity (Guinea Pig) % Inhibition Intravenous 120 mins. (whole complement; 200 mg/kg, 120 mins.) |
| --- | --- | --- | --- | --- | --- | --- | --- | --- | --- | --- | --- | --- |
| O=C(Nc1cc(C(=O)O)cc(C(=O)Nc2cc(S(=O)(=O)O)cc3cc(S(=O)(=O)O)cc(O)c23)c1)Nc1cc(C(=O)O)cc(C(=O)Nc2cc(S(=O)(=O)O)cc3cc(S(=O)(=O)O)cc(O)c23)c1 [3,3'-(Carbonyldiimino)bis[5-[(8-hydroxy-3,6-disulfo-1-naphthalenyl)aminocarbonyl]]benzoic acid tetrasodium salt] | +6 Wells | -69% | – | – | – | – | – | – | – | – | – | – |
| O=C(Nc1cc(C(=O)O)cc(C(=O)Nc2ccc(S(=O)(=O)O)c3cc(S(=O)(=O)O)cc(O)c23)c1)Nc1cc(C(=O)O)cc(C(=O)Nc2ccc(S(=O)(=O)O)c3cc(S(=O)(=O)O)cc(O)c23)c1 [3,3'-Ureylenebis{5-[(8-hydroxy-4,6-disulfo-1-naphthenyl)aminocarbonyl]-benzoic acid}tetrasodium salt] | +4 Wells | -94% | +2 Wells | – | – | – | – | – | – | – | – | – |
| O=C(Nc1ccc(C(=O)Nc2cc3ccccc3cc2C(=O)[O-])c(S(=O)(=O)[O-])c1)Nc1ccc(C(=O)Nc2cc3ccccc3cc2C(=O)[O-])c(S(=O)(=O)[O-])c1.[Na+].[Na+].[Na+].[Na+] [3,3'-{Ureylenebis[(2-sulfo-4,1-phenylene)carbonylimino]}di-2-naphthoic acid tetrasodium salt] | N | – | N | +3 Wells | – | – | – | – | – | – | – | – |
| O=C(Nc1ccc(C(=O)Nc2ccc(S(=O)(=O)[O-])c3cc(S(=O)(=O)[O-])cc(O)c23)c(S(=O)(=O)[O-])c1)Nc1ccc(C(=O)Nc2ccc(S(=O)(=O)[O-])c3cc(S(=O)(=O)[O-])cc(O)c23)c(S(=O)(=O)[O-])c1.[Na+].[Na+].[Na+].[Na+].[Na+].[Na+] [4,4'-Ureylenebis[(2-sulfo-4,1-phenylenecarbonyl)imino]bis[5-hydroxy-1,7-naphthalenedisulfonic acid] hexasodium salt] | +7 Wells | – | +5 Wells | N | 1% | -3% | -24% | – | – | – | – | – |
| O=C(Nc1ccc(C(=O)Nc2ccc(S(=O)(=O)[O-])c3cccc(S(=O)(=O)O)c23)c(S(=O)(=O)[O-])c1)Nc1ccc(C(=O)Nc2ccc(S(=O)(=O)O)c3cccc(S(=O)(=O)O)c23)c(S(=O)(=O)[O-])c1.[Na+].[Na+].[Na+] [4,4'-{Ureylenebis[(2-sulfo-4,1-phenylenecarbonyl)imino]}-di-1,5-naphthalenedisulfonic acid trisodium salt] | +7 Wells | – | +1 Wells | N | -10% | 6% | -6% | – | – | – | – | – |
| O=C(Nc1ccc(C(=O)Nc2cc(S(=O)(=O)[O-])cc3cc(S(=O)(=O)[O-])ccc23)c(S(=O)(=O)[O-])c1)Nc1ccc(C(=O)Nc2cc(S(=O)(=O)[O-])cc3cc(S(=O)(=O)[O-])ccc23)c(S(=O)(=O)[O-])c1.[Na+].[Na+].[Na+].[Na+].[Na+].[Na+] [4,4'-{Ureylenebis[(2-sulfo-4,1-phenylenecarbonyl)imino]}-di-2,7-naphthalenedisulfonic acid hexasodium salt] | – | – | N | – | – | – | – | – | – | – | – | – |
| O=C(Nc1ccc(C(=O)Nc2cc(S(=O)(=O)O)cc3cc(S(=O)(=O)O)cc(O)c23)c(S(=O)(=O)O)c1)Nc1ccc(C(=O)Nc2cc(S(=O)(=O)O)cc3cc(S(=O)(=O)O)cc(O)c23)c(S(=O)(=O)O)c1 [4,4'-{Ureylenebis[(2-sulfo-4,1-phenylenecarbonyl)imino]}bis-[5-hydroxy-2,7-naphthalenedisulfonic acid]hexasodium salt] | – | -74% | – | – | – | – | – | -35% | -41% | -98% | -81% | -63% |
| Cc1ccc(NC(=O)Nc2ccc(C)c(C(=O)Nc3ccc(S(=O)(=O)[O-])c4cc(S(=O)(=O)[O-])cc(O)c34)c2)cc1C(=O)Nc1ccc(S(=O)(=O)[O-])c2cc(S(=O)(=O)[O-])cc(O)c12.[Na+].[Na+].[Na+].[Na+] [4,4'-{Ureylenebis[(6-methyl-3,1-phenylenecarbonyl)imino]}-bis[5-hydroxy-1,7-naphthalenedisulfonic acid], tetrasodium salt] | – | – | +2 Wells | – | – | – | – | – | – | – | – | – |
| O=C(Nc1ccc(C(=O)Nc2cccc3cc(S(=O)(=O)O)cc(O)c23)c(S(=O)(=O)O)c1)Nc1ccc(C(=O)Nc2cccc3cc(S(=O)(=O)O)cc(O)c23)c(S(=O)(=O)O)c1 [5,5'-{Ureylenebis[(2-sulfo-4,1-phenylenecarbonyl)imino]}-bis[4-hydroxy-2-naphthalenesulfonic acid]tetrasodium salt] | +2 Wells | -58% | – | – | – | – | – | -26% | 0% | – | – | – |
| O=C(Nc1ccc(S(=O)(=O)[O-])c(C(=O)Nc2cc(S(=O)(=O)[O-])cc3cc(S(=O)(=O)[O-])cc(S(=O)(=O)[O-])c23)c1)Nc1ccc(S(=O)(=O)[O-])c(C(=O)Nc2cc(S(=O)(=O)[O-])cc3cc(S(=O)(=O)[O-])cc(S(=O)(=O)[O-])c23)c1.[Na+].[Na+].[Na+].[Na+].[Na+].[Na+].[Na+].[Na+] [8,8'-[Carbonylbis[imino[(-6-sulfo-3,1-phenylene)]carbonylimino]]-bis-1,3,6-naphthalenetrisulfonic acid octasodium salt] | +7 Wells | – | +1 Wells | – | -23% | -58% | -71% | – | – | – | – | – |
| O=C(Nc1ccc(C(=O)Nc2cc(S(=O)(=O)[O-])cc3cc(S(=O)(=O)[O-])cc(S(=O)(=O)[O-])c23)cc1)Nc1ccc(C(=O)Nc2cc(S(=O)(=O)[O-])cc3cc(S(=O)(=O)[O-])cc(S(=O)(=O)[O-])c23)cc1.[Na+].[Na+].[Na+].[Na+].[Na+].[Na+] [8,8'-[Ureylenebis(4,1-phenylenecarbonylimino)]di-1,3,6-naphthalenetrisulfonic acid hexasodium salt] | +4 Wells | – | – | – | -18% | -21% | -33% | – | – | -71% | -28% | -16% |
| O=C(Nc1ccc(C(=O)Nc2ccc(S(=O)(=O)[O-])c3cc(S(=O)(=O)[O-])cc(S(=O)(=O)[O-])c23)c(S(=O)(=O)[O-])c1)Nc1ccc(C(=O)Nc2ccc(S(=O)(=O)[O-])c3cc(S(=O)(=O)[O-])cc(S(=O)(=O)[O-])c23)c(S(=O)(=O)[O-])c1.[Na+].[Na+].[Na+].[Na+].[Na+].[Na+].[Na+].[Na+] [8,8'-{Ureylenebis[(2-sulfo-4,1-phenylenecarbonyl)imino]}di-1,3,5-naphthalenetrisulfonic acid octasodium salt] | – | – | – | +1 Wells | -32% | -31% | -51% | – | – | -89% | -45% | -29% |
| O=C(Nc1ccc(C(=O)Nc2cc(S(=O)(=O)O)cc3cc(S(=O)(=O)O)cc(S(=O)(=O)O)c23)c(S(=O)(=O)O)c1)Nc1ccc(C(=O)Nc2cc(S(=O)(=O)O)cc3cc(S(=O)(=O)O)cc(S(=O)(=O)O)c23)c(S(=O)(=O)O)c1 [8,8'-{Ureylenebis{[(2-sulfo-4,1-phenylene)carbonyl]imino}}-1,3,6-naphthalenetrisulfonic acid octasodium salt] | – | -8% | – | – | – | – | – | 4% | 17% | -85% | -53% | -24% |
